According to patent publication US11739350B2 (priority 2018, dated 2023):

Assays:
[1] = system: patient-derived pancreatic cancer cell line (Patient 25)

GSK126
Cell viability (%) relative to mock vehicle-treated cells (title: GSK126-induced cytotoxicity (%)) (786-0): 111.99% | Cell viability as a percentage of control (cells treated with mock EVs and vehicle control) (BXPC3 cells): 90.78 percentage of control | Cell viability (%) relative to mock vehicle-treated cells (title: GSK126-induced cytotoxicity (%)) (BxPC3): 96.07% | Cell viability (%) relative to mock vehicle-treated cells (title: GSK126-induced cytotoxicity (%)) [1]: 80.82% | Cell viability as a percentage of control (cells treated with mock EVs and vehicle control) (786-0 cells): 98.35 percentage of control | Cell viability as a percentage of control (cells treated with mock EVs and vehicle control) (Patient 25): 64.14 percentage of control | Cell viability (%) relative to mock vehicle-treated cells (title: GSK126-induced cytotoxicity (%)) (4T1): 113.57%
